Blank lines part the entries; values can stand above or below the compound they belong to.
How the values were obtained:
Plasmodium falciparum = assay: Antimalarial activity against wild type Plasmodium falciparum 3D7 assessed as growth inhibition; assay type: functional, organism-based
[1] = Inhibition of Plasmodium falciparum 3D7 cytochrome bc1 complex assessed as cytochrome c reduction by spectrophotometric analysis in presence of decylubiquinol
[2] = Plasmodium falciparum, 3D7, read-out: IC50

SMILES: CC(C)OC(=O)c1c[nH]c2cc(Oc3ccccc3)ccc2c1=O
IC50 (Plasmodium falciparum; [2]): 8.45 nM

SMILES: CCOC(=O)c1c[nH]c2cc(Oc3ccc(OC(F)(F)F)cc3)ccc2c1=O
IC50 (Plasmodium falciparum; [2]): 5.3 nM

SMILES: O=C(OC1CCCCC1)c1c[nH]c2cc(Oc3ccccc3)ccc2c1=O
IC50 (Plasmodium falciparum; [2]): 29.6 nM

SMILES: CCOC(=O)c1c[nH]c2ccc(OCc3ccccc3)cc2c1=O
IC50 (Plasmodium falciparum): ND(Insoluble)

SMILES: N#Cc1c[nH]c2ccc(Oc3ccccc3)cc2c1=O
IC50 (Plasmodium falciparum; [2]): > 10000 nM

EC50 [1]: 3 nM
SMILES: O=C1C(O)=C([C@H]2CC[C@H](c3ccc(Cl)cc3)CC2)C(=O)c2ccccc21 [ATOVAQUONE]

EC50 [1]: 1.3 nM
SMILES: CCOC(=O)c1c[nH]c2cc(Cc3ccc(OC(F)(F)F)cc3)ccc2c1=O
IC50 (Plasmodium falciparum; [2]): 0.46 nM

SMILES: CCOC(=O)c1c[nH]c2cc(OCc3ccccc3)ccc2c1=O
IC50 (Plasmodium falciparum): ND(Insoluble)

SMILES: CCOC(=O)c1c[nH]c2ccc(Oc3ccccc3)cc2c1=O
IC50 (Plasmodium falciparum; [2]): 164 nM

SMILES: N#Cc1c[nH]c2cc(Oc3ccccc3)ccc2c1=O
IC50 (Plasmodium falciparum; [2]): 8100 nM

SMILES: O=C(OC1CCCCC1)c1c[nH]c2ccc(Oc3ccccc3)cc2c1=O
IC50 (Plasmodium falciparum; [2]): 1820 nM

SMILES: CCOC(=O)c1c[nH]c2cc(Oc3ccccc3)ccc2c1=O
IC50 (Plasmodium falciparum; [2]): 19.3 nM

SMILES: CC(C)OC(=O)c1c[nH]c2ccc(Oc3ccccc3)cc2c1=O
IC50 (Plasmodium falciparum; [2]): 184 nM

SMILES: CCOC(=O)c1c[nH]c2ccc(Cc3ccc(OC(F)(F)F)cc3)cc2c1=O
IC50 (Plasmodium falciparum; [2]): 142 nM

SMILES: O=c1cc[nH]c2cc(Oc3ccccc3)ccc12
IC50 (Plasmodium falciparum; [2]): 6720 nM

SMILES: CCOC(=O)c1c[nH]c2cc(OCc3ccc(OC(F)(F)F)cc3)ccc2c1=O
IC50 (Plasmodium falciparum; [2]): 5 nM

SMILES: CCOC(=O)c1c[nH]c2ccc(Cc3ccccc3)cc2c1=O
IC50 (Plasmodium falciparum; [2]): 40.4 nM

SMILES: CCOC(=O)c1c[nH]c2ccc(OCc3ccc(OC(F)(F)F)cc3)cc2c1=O
IC50 (Plasmodium falciparum; [2]): 675 nM

SMILES: CCOC(=O)c1c[nH]c2ccc(Oc3ccc(OC(F)(F)F)cc3)cc2c1=O
IC50 (Plasmodium falciparum; [2]): 230 nM

SMILES: CCOC(=O)c1c[nH]c2cc(Cc3ccccc3)ccc2c1=O
IC50 (Plasmodium falciparum; [2]): 4.57 nM

SMILES: O=c1cc[nH]c2ccc(Oc3ccccc3)cc12
IC50 (Plasmodium falciparum; [2]): 4700 nM

Reference: ChEMBL document CHEMBL3217655, “The development of quinoloneesters as novel antimalarial agents targeting the Plasmodium falciparum bc1protein complex” (Medchemcomm, 2012)
